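96-well plates; 48 h exposure; 5 concentrations. Endpoints by linear interpolation between flanking doses. Not reached: highest tested concentration assigned. Abbreviation: GI50, concentration required for 50% inhibition of growth.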 Calls of active or inactive are those of the source. Rule as the data show it: active = GI50 up to about 1.1 µM and inactive = higher.

Some test systems named below: TK-10; ACHN; HT-29; SK-MEL-28; M14; HOP-92; UO-31; DU-145; HL-60; HCT-15; A498; OVCAR-4; NCI-H226; COLO 205; OVCAR-5; IGROV-1; CCRF-CEM; NCI-H522; SNB-75.
Test in all cases: growth of human tumour cells (NCI), 48 h

Turning to `CCOC(=O)c1cc2c(=Cc3ccc(N(C)C)cc3)c3ccccc3n2[n+]1C`, the GI50 in the assay with TK-10 was 7.67 µM (inactive); with ACHN, 5.87 µM (inactive); in the assay with HT-29 it was < 0.01 µM (active); in the assay with SK-MEL-28 it was 1.53 µM (inactive); in the assay with M14, 3.15 µM (inactive); in the assay with HOP-92, 2.88 µM (inactive). In addition, the GI50 in the assay on UO-31 was 6.12 µM (inactive); with DU-145 it was 1.38 µM (inactive); in the assay with HL-60, 0.372 µM (active); in the assay on HCT-15 it was 10.4 µM; in the assay on A498, 10.4 µM (inactive); in the assay with OVCAR-4, 3.1 µM (inactive). In addition, the GI50 is 8.24 µM (inactive) in the assay on NCI-H226, 0.309 µM (active) with COLO 205 and 5.98 µM (inactive) with OVCAR-5.

As to `CSc1ncnc2c1cnn2Cc1cn(COCCO)nn1`, the GI50 is > 100 µM (inactive) with TK-10; > 100 µM (inactive) in the assay on ACHN; 22.3 µM (inactive) with HT-29; > 100 µM (inactive) in the assay on SK-MEL-28; > 100 µM (inactive) in the assay with M14; > 100 µM (inactive) in the assay on HOP-92. The GI50 with IGROV-1 was 74.8 µM (inactive); in the assay on UO-31 it was > 100 µM (inactive); with DU-145, 49.3 µM (inactive); in the assay with CCRF-CEM it was 43.5 µM (inactive); in the assay with HL-60 it was 40 µM (inactive); in the assay on HCT-15, > 100 µM. For the same compound, the GI50 in the assay on A498 is > 100 µM (inactive); with OVCAR-4, 45.5 µM (inactive); with NCI-H226, > 100 µM (inactive); in the assay with COLO 205, 33.9 µM (inactive); with OVCAR-5 it was 88.5 µM (inactive).

For `O=C(/C=C/c1ccc(O)c(O)c1)NC(COC(=O)/C=C/c1ccc(O)c(O)c1)C(=O)O` (centres undefined), the GI50 with TK-10, with ACHN, in the assay with HT-29, in the assay on SK-MEL-28, in the assay with M14 and in the assay with HOP-92 was > 100 µM (inactive) throughout. Moreover, the GI50 was > 100 µM (inactive) in the assay on IGROV-1; > 100 µM (inactive) with UO-31; > 100 µM (inactive) in the assay on NCI-H522; > 100 µM (inactive) with DU-145; 37.8 µM (inactive) in the assay on CCRF-CEM; > 100 µM in the assay on HCT-15. The GI50 in the assay on A498, with OVCAR-4, in the assay with NCI-H226, in the assay with COLO 205, in the assay on SNB-75 and with OVCAR-5 was > 100 µM (inactive) throughout.

On to `CC1(C)CC2C=C(C=O)C3(C=O)CC3(C)C2C1` (centres undefined), for which the GI50 in the assay with TK-10 is 2.39 µM (inactive); in the assay with ACHN, 1.49 µM (inactive); with HT-29, 1.41 µM (inactive); in the assay with SK-MEL-28 it was 2.06 µM (inactive); with M14 it was 2.29 µM (inactive); in the assay with HOP-92 it was 1.95 µM (inactive). Also, the GI50 in the assay with IGROV-1 is 2.15 µM (inactive); with UO-31, 1.69 µM (inactive); with NCI-H522, 1.09 µM (active); in the assay on DU-145 it was 5.45 µM (inactive); in the assay with CCRF-CEM it was 0.0468 µM (active); in the assay on HL-60, 0.0333 µM (active). Besides, the GI50 in the assay with HCT-15 was 1.64 µM; in the assay with OVCAR-4, 1.73 µM (inactive); with NCI-H226, 4.21 µM (inactive); with COLO 205, 1.89 µM (inactive); in the assay with SNB-75, 1.89 µM (inactive); in the assay with OVCAR-5, 1.79 µM (inactive).

Consider `COc1ccc2c(Cl)cc(NC(=S)Nc3ccccc3)nc2c1`, for which the GI50 in the assay with TK-10 was 57.7 µM (inactive); with ACHN, 38.5 µM (inactive); in the assay on HT-29, 22.4 µM (inactive); in the assay with SK-MEL-28, 33.6 µM (inactive); with M14, 18.3 µM (inactive); in the assay on HOP-92, 21.8 µM (inactive). Besides, the GI50 was 20.8 µM (inactive) in the assay on IGROV-1; 13.2 µM (inactive) in the assay with NCI-H522; 35.7 µM (inactive) with DU-145; < 0.01 µM (active) in the assay on CCRF-CEM; 27.9 µM with HCT-15; 21.1 µM (inactive) in the assay with A498. Moreover, the GI50 was 32.4 µM (inactive) in the assay with OVCAR-4; 55.5 µM (inactive) in the assay on NCI-H226; 31.2 µM (inactive) with COLO 205; 23.6 µM (inactive) in the assay with SNB-75; 30.1 µM (inactive) in the assay on OVCAR-5.

Take `N#CCCN(CCC#N)c1ccc(C(/N=N/c2ccccc2)=N\c2ccccc2)cc1`: the GI50 in the assay on TK-10, with ACHN, with HT-29, in the assay on SK-MEL-28, with M14 and in the assay on HOP-92 was > 100 µM (inactive) each time. Also, the GI50 with IGROV-1 is > 100 µM (inactive); in the assay with UO-31, > 100 µM (inactive); in the assay with NCI-H522, 59.6 µM (inactive); in the assay with DU-145, > 100 µM (inactive); in the assay on CCRF-CEM, > 100 µM (inactive); in the assay with HCT-15, > 100 µM. For the same compound, the GI50 in the assay on A498, with OVCAR-4, with NCI-H226, with COLO 205, in the assay with SNB-75 and with OVCAR-5 was > 100 µM (inactive) each time.

Take `C[C@H](c1ccccc1)N1C(=O)[C@@H](OCc2ccccc2)[C@H]1[C@H](COC(=O)COCc1ccccc1)OCc1ccccc1`: the GI50 in the assay with TK-10, in the assay on ACHN, with SK-MEL-28, with M14, in the assay with HOP-92 and in the assay on IGROV-1 was > 100 µM (inactive) in each case. For the same compound, the GI50 was 7.69 µM (inactive) with UO-31; 86.9 µM (inactive) in the assay with NCI-H522; > 100 µM (inactive) in the assay on DU-145; > 100 µM (inactive) with CCRF-CEM; > 100 µM in the assay with HCT-15; > 100 µM (inactive) in the assay with A498. In addition, the GI50 is 6.95 µM (inactive) in the assay on NCI-H226, > 100 µM (inactive) in the assay on COLO 205, 9.08 µM (inactive) in the assay on SNB-75 and > 100 µM (inactive) in the assay on OVCAR-5.

As to `O=C1C2=Cc3ccccc3OC2(O)Oc2cc(O)ccc21` (centres undefined), the GI50 in the assay with TK-10, with ACHN, with HT-29, in the assay on SK-MEL-28, in the assay on M14 and in the assay with HOP-92 was > 100 µM (inactive) each time. Moreover, the GI50 was > 100 µM (inactive) with IGROV-1; > 100 µM (inactive) in the assay with DU-145; 27.5 µM (inactive) in the assay with CCRF-CEM; 97.7 µM in the assay with HCT-15; > 100 µM (inactive) in the assay with A498; > 100 µM (inactive) in the assay on NCI-H226. For the same compound, the GI50 in the assay on COLO 205, in the assay with SNB-75 and in the assay with OVCAR-5 was > 100 µM (inactive) each time.

On to `CCn1c(=O)c2c3ccc(O)cc3oc2c2ccc(O)cc21`, for which the GI50 in the assay on TK-10 was 44 µM (inactive); with ACHN, 24.8 µM (inactive); in the assay with HT-29, 48.1 µM (inactive); in the assay with SK-MEL-28, 49.1 µM (inactive); in the assay with M14, 43.2 µM (inactive); in the assay on HOP-92, 57.9 µM (inactive). Also, the GI50 was 40.4 µM (inactive) in the assay with IGROV-1; 26.7 µM (inactive) with UO-31; 40.1 µM (inactive) with NCI-H522; 47.8 µM (inactive) with DU-145; 28.2 µM (inactive) in the assay on CCRF-CEM; 39.4 µM in the assay with HCT-15. Further, the GI50 was 25.4 µM (inactive) with A498; 62.4 µM (inactive) with OVCAR-4; 42.7 µM (inactive) with NCI-H226; 44.7 µM (inactive) in the assay on COLO 205; 29.9 µM (inactive) with SNB-75.

Take `CCn1c(-c2ccc(OC)cc2)nc2c1C(=O)c1ccccc1C2=O`: the GI50 in the assay on TK-10, in the assay on ACHN, with HT-29, with SK-MEL-28, in the assay on M14 and in the assay with HOP-92 was > 100 µM (inactive) throughout. In addition, the GI50 was > 100 µM (inactive) with IGROV-1; > 100 µM (inactive) in the assay on NCI-H522; > 100 µM (inactive) with DU-145; > 100 µM (inactive) with CCRF-CEM; > 100 µM (inactive) in the assay on HL-60; > 100 µM with HCT-15. For the same compound, the GI50 in the assay with OVCAR-4 was > 100 µM (inactive); with NCI-H226, 61.1 µM (inactive); in the assay on COLO 205, > 100 µM (inactive); in the assay with SNB-75, > 100 µM (inactive); with OVCAR-5, > 100 µM (inactive).

Take `O=C(O)Cc1cccnc1`: the GI50 with TK-10, in the assay with ACHN, with HT-29, in the assay with SK-MEL-28, with M14 and in the assay on HOP-92 was > 100 µM (inactive) throughout. Moreover, the GI50 in the assay with IGROV-1 is > 100 µM (inactive); in the assay on UO-31 it was > 100 µM (inactive); in the assay with NCI-H522, > 100 µM (inactive); in the assay on DU-145 it was > 100 µM (inactive); in the assay on CCRF-CEM it was > 100 µM (inactive); in the assay on HCT-15, > 100 µM. The GI50 in the assay on A498, with OVCAR-4, in the assay on NCI-H226, in the assay with COLO 205, with SNB-75 and with OVCAR-5 was > 100 µM (inactive) in each case.

`Cc1cc(=O)oc2c(CNC(C(=O)O)C(C)O)c(O)ccc12` (centres undefined): the GI50 in the assay with TK-10, in the assay with ACHN, with HT-29, in the assay on SK-MEL-28, in the assay on M14 and in the assay with HOP-92 was > 100 µM (inactive) in each case. Further, the GI50 in the assay on IGROV-1, with UO-31, in the assay on NCI-H522, with DU-145, in the assay with CCRF-CEM and in the assay on HL-60 was > 100 µM (inactive) throughout. In addition, the GI50 is > 100 µM in the assay with HCT-15; > 100 µM (inactive) in the assay on OVCAR-4; > 100 µM (inactive) in the assay with NCI-H226; > 100 µM (inactive) in the assay on COLO 205; 8.89 µM (inactive) in the assay with SNB-75; > 100 µM (inactive) in the assay with OVCAR-5.

The record behind these values is ChEMBL document CHEMBL1201862, “PubChem BioAssay data set” (2004).
